Test results reported in patent US4342751A (priority 1981, dated 1982).
Numbered stars: 1 amine (or outer) side, 2 acyl side, 3 side chain; on linkers, the order of the positions; unused ones are H or OH. Square brackets hold non-standard residues; d marks the D form. Peptide text beside a SMILES is read from it. X1 = CCC(N[*:1])C(C)C(=O)O[C@H](C(=O)[*:2])[C@@H](C)CC; X2 = C[C@H](N[*:1])C(=O)C(C)(C)C(=O)[*:2]; NMeY = CN[C@@H](Cc1ccc(O)cc1)C(=O)O; NMeI = CC[C@H](C)[C@H](NC)C(=O)O; NMeV = CN[C@H](C(=O)O)C(C)C

Experiments:
[1] = tested on: Grape leaves (C. V. Niagara); conditions: in vivo

CCC1NC(=O)[C@H](C)NC(=O)C(C)(C)C(=O)[C@H](C)NC(=O)[C@H](Cc2ccc(OC)cc2)N(C)C(=O)[C@H](C(C)C)N(C)C(=O)CNC(=O)[C@H]([C@@H](C)CC)N(C)C(=O)CNC(=O)[C@H]([C@@H](C)CC)OC(=O)C1C (stereo partly drawn) [Majusculamide C, majusculamide C] (cyclo(A[X1]G[NMeI]G[NMeV][NMeY](Me)[X2]))
In vivo effectiveness against grape downy mildew (Plasmopora viticola): effective
Control of fungus (Plasmopora viticola; in vivo): control
Phytotoxicity rating, grape leaves [1]: 0
